Assay [1] deals with MDA-MB-231. Nature of the assay: Cell viability assay (MTT), MDA-MB-231. Format: cell-based, human. The conditions noted are these: 1% DMSO. The method in brief: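 Cells seeded 24 h before treatment with 0–200 μM compound (11 concentrations, 1% DMSO final) in 10% or 0.5% FBS medium; exposure 16 h, 3 or 6 days, fed every 3 days in 6-day runs. MTT 0.5 mg/ml read at 550 nm; IC50 from dose-response curves, mean±SEM.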

For assay [2], the system named is HeLa. Nature of the assay: Cell viability assay (MTT), HeLa. Format: cell-based. The conditions noted are these: Homo sapiens, 72 h, 10% FBS, 3-day treatment, 1% DMSO. As to the method: Table 14: 3-day cell viability assay (MTT) in the presence of 10% Fetal Bovine Serum and 1% DMSO, in DLD1, HCT116, MDA-MB-231, MCF7 and HeLa cells. 7.5 10^3 to 1.5 10^4 cells were seeded in 48-well plates in growth medium containing 10% FBS, with or without various concentrations of test compounds. Data were analyzed and IC50s were calculated from dose-response curves using GraphPad Prism. Results summarized in the tables are mean±SEM of 1 to 7 independent experiments.
(§1) In order to determine a compound's effect on cell viability, microculture tetrazolium assays (MTT) were performed as described by Carmichael et al. (1996) with modifications. Four human tumoral cell lines, namely HCT116 colon adenocarcinoma, H460 lung carcinoma, MCF-7 and MDA-MB-231 breast carcinoma cell lines, DLD1 colorectal adenocarcinoma, HeLa adenocarcinoma, HepG2 hepatocellular carcinoma. 3 immortalized but non tumorigenic cell lines, namely NIH3T3 mouse fibroblasts (American Type Culture Collection) and primary hepatocytes (Biopredic international), cultured according to their recommendations together with Human Microvasculature Endothelial Cell line HMEC1 (National Center for Infectious Diseases). Briefly, cells were seeded in 48-well plates 24 hours before drug addition. Cells were treated with 0 to 200 μM (11 concentrations) of compound solubilized in DMSO, adjusting the final concentration of DMSO to 1% in the well. 16 hours, and three or six days after treatment, 0.5 mg/ml MTT (Sigma) was added to the medium and cells were incubated for 1-5 hours at 37° C. before solubilization of formazan crystals in 100% DMSO. Absorbance was measured using a spectrophotometer at a wavelength of 550 nm. Data was analyzed using the GraphPad Prism software (GraphPad Software, Inc.), and IC50 (dose leading to 50% cell death) was calculated from the dose-response curves.

Assay [3] deals with HepG2. Nature of the assay: Cell viability assay (MTT), HepG2. The class given is cell-based. The conditions noted are these: Homo sapiens, 10% FBS, 16-hours treatment, 1% DMSO. As to the method: Table 15: 16-hour cell viability assay (MTT) in the presence of 10% Fetal Bovine Serum and 1% DMSO, in HCT116, MDA-MB-231, NIH3T3, HepG2 and primary hepatocytes. 5 10^4 to 10 10^4 cells were seeded in 48-well plates in growth medium containing 10% FBS, with or without various concentrations of test compounds. Data were analyzed and IC50s were calculated from dose-reponse curves using GraphPad Prism. Results summarized in the tables are mean±SEM of 1 to 2 independent experiments.
as §1

In assay [4] the test system is HMEC-1 cells. Kind of assay: Tubule formation (tubulogenesis) assay on Matrigel. Format: cell-based, Human. The conditions noted are these: HMEC1 on Matrigel; for IC50: Homo sapiens, HMEC-1, 6 to 8 hours, read-out: IC50, tubulogenesis (number of junctions). The protocol:
FIG. 5: Tubulogenesis assay (number of junctions). 2 10^4 Cells were plated on Matrigel-coated wells as described in the material and methods. Pictures of each well were taken after a 7-hours incubation. The “number of junctions” parameter was quantitated using the AngioSys software and data were analyzed using GraphPad Prism for IT50 calculation. Values represent the mean±SEM of 2 to 30 independent experiments.
The endothelial cell tube formation assay, or tubulogenesis assay, is an in vitro assay that is widely accepted to accurately reflect number of terminal stages of the angiogenic process such as attachment, migration and differentiation into tubular structures. In this model, endothelial cells are cultured on a monolayer of reconstituted basement membrane components (Matrigel) and form, in a few hours, capillary-lilke structure. Therefore, this system is a useful and powerful tool for rapidly screening anti-angiogenic agents by monitoring inhibition of endothelial cells morphogenesis on extracellular matrix.
HMEC-1 cell line is cultured in MCDB-131 medium (Sigma) supplemented with 15% FBS, 10 ng/ml recombinant human epidermal growth factor (Invitrogen) and 1 μg/ml hydrocortisone. Cells are cultured to 70-80% confluence. A 96-well plate was coated with Matrigel® Basement Membrane Matrix (Becton Dickinson). 2 10^4 HMEC-1 cells were seeded into each well. The test or control compounds were diluted in DMSO and added to the coated plate. The plate was subsequently incubated for 6 to 8 hours at 37° C., 5% CO2 atmosphere to allow tubule formation. The cells were then incubated with 1.25 μg/ml Calcein AM for 15 minutes at 37° C., 5% CO2. Pictures of each well were taken using a fluorescent microscope and a digital camera (Nikon Coolpix 990). Images were analysed using AngioSys software (TCS Cellworks) that allows quantification of the total tubule length and of the number of junctions, two parameters representative of tubule formation/disruption. Data was analyzed using the GraphPad Prism software, and IT50s (dose leading to 50% inhibition of tubulogenesis) was calculated.

Where [5] appears, read: Homo sapiens, MDA-MB-231, 16 h, 10% FBS, 16-hours treatment, read-out: IC50 μM, MDA-MB-231.
Setting [6] is: Homo sapiens, MDA-MB-231, 72 h, 10% FBS, 3-day treatment, read-out: IC50 μM, MDA-MB-231.
Setting [7] is: Homo sapiens, MDA-MB-231, 144 h, 0.5% FBS, 6-day treatment, read-out: IC50 (μM), MDA-MB-231.

Read-outs that look alike come from different tables or passages of the source.

By IC50 is commonly meant the concentration that inhibits the measured activity by half. In the case of `Cl.Cl.O=c1cc(CN2CCOCC2)occ1OCCCCCSc1ccnc2cc(C(F)(F)F)ccc12` [EHT 1864, 5-(5-(7-(Trifluoromethyl)quinolin-4-ylthio)pentyloxy)-2-(morpholinomethyl)-4H-pyran-4-one dihydrochloride], the 50% inhibitory concentration (IC50) is 9.3 µM in assay [1] (10% FBS, 6-day treatment, dihydrochloride, read-out: IC50 μM, MDA-MB-231); 126 µM in assay [1] (setting [5]); 9.9 µM in assay [1] (setting [6]); 6.3 µM in assay [1] (setting [7]); less than 9 µM in assay [1] (Homo sapiens, MDA-MB-231, 144 h, 10% FBS, 6-day treatment, read-out: IC50 μM, MDA-MB-231); 23.3 µM in assay [2]. For the same compound, the IC50 in assay [3] was 60 µM; in assay [4], 34.9 ± 3.5 µM. The “fold more active than reference compound CAI in tubulogenesis” value in assay [4] was 4 fold.
For the compound `CN1CCN(Cc2cc(=O)c(OCCCCCSc3ccnc4cc(C(F)(F)F)ccc34)co2)CC1.Cl.Cl.Cl` [EHT 9241, 5-(5-(7-(Trifluoromethyl)quinolin-4-ylthio)pentyloxy)-2-((4-methylpiperazin-1-yl)methyl)-4H-pyran-4-one trihydrochloride], the IC50 worked out at 5.3 µM in assay [1] (10% FBS, 6-day treatment, trihydrochloride, read-out: IC50 μM, MDA-MB-231); 48.4 µM in assay [1] (setting [5]); 11.1 µM in assay [1] (setting [6]); 3.8 µM in assay [1] (setting [7]); 5.7 µM in assay [2]; 11.3 µM in assay [3]. Further, the IC50 in assay [4] is 26 ± 8.7 µM.
In the case of `Cl.Cl.Cl.O=c1cc(CN2CCNCC2)occ1OCCCCCSc1ccnc2cc(C(F)(F)F)ccc12` [EHT 8560, 5-(5-(7-(Trifluoromethyl)quinolin-4-ylthio)pentyloxy)-2-((piperazin-1-yl)methyl)-4H-pyran-4-one trihydrochloride], the IC50 in assay [1] (setting [6]) worked out at 9 µM; in assay [1] (setting [7]), 4 µM; in assay [2], 4.4 µM; in assay [3] it was 9.75 µM; in assay [4], 17 ± 3.6 µM.
